Data from US8846393B2, “Methods of improving stem cell homing and engraftment” (Gamida-Cell Ltd., priority 2005, dated 2014).
“And” between values parts separate entries of the source, which are not always exact repeats. Equal entries are not always repeated.

How the values were obtained:
[1] = test system: CD26/dipeptidylpeptidase IV; experiment: FACS analysis of CD26 membranal expression on CD34+ cells after short-term incubation; assay type: cell-based, human
Description: Cells were obtained from umbilical cord blood after normal full-term delivery (informed consent was given). Samples were collected and frozen according to Rubinstein et al. [Rubinstein et al. Proc Natl Acad Sci USA. 1995; 92 (22):10119-10122.] within 24 h postpartum. Prior to use, the cells were thawed in Dextran buffer (Sigma, St. Louis, Mo., USA) containing 2.5% human serum albumin (HAS, Bayer Corp. Elkhart, Ind., USA), layered on a Ficoll-Hypaque gradient (1.077 g/mL; Sigma), and centrifuged at 800×g for 30 min. The mononuclear cells in the interface layer were collected and washed three times in phosphate-buffered saline (PBS, Biological Industries) containing 0.5% HSA. To purify the CD34+ cells, the mononuclear cell fraction was subjected to two cycles of immunomagnetic bead separation, using a “MiniMACS CD34 progenitor cell isolation kit” (Miltenyi Biotec Bergisch, Gladbach, Germany), according to manufacturer's instructions. The purity of the CD34+ population thus obtained was 95-98%, as evaluated by flow cytometry. Percentages of progenitor cells positive for CD26 were determined by staining of CD34+ cells with anti-CD26 FITC purchased from Becton Dickinson. […] Freshly purified CD34+ cells were FACS analyzed for the expression of CD26 (T-0) then incubated±Nicotinamide 5 mM for 20 hours (T-20 hours) and FACS analyzed again.

VLA-4 = experiment: Shear flow experiments, VLA4-mediated binding to immobilized VCAM-1; assay type: cell-based, human; settings: CD34+ cells cultured with cytokines and nicotinamide
Description: FIG. 3 is a graph showing the effect of nicotinamide on VLA4-mediated binding of cells to immobilized adhesion molecules under shear flow. CD34+ cells cultured as described in FIGS. 1 and 2 hereinabove were assayed for capture and arrest under shear stress, on immobilized VCAM-1 adsorbed as 10 μl dots on polystyrene. Cell settling events, and arrest were analyzed under perfusion (shear stress) by video photography. Assayed cell populations were cells before culture (non-cultured, open circles), cells cultured with cytokines, as described in FIG. 2 (cultured, closed circles), and cells cultured with cytokines and nicotinamide (cultured+NA, closed triangles). […]
Soluble purified seven-domain human VCAM-1, sVCAM-1 was mixed in coating medium (PBS buffered with 20 mM sodium bicarbonate pH, 8.5) with a fixed amount of carrier (2 μg/ml HSA) and adsorbed as 10-μl spots on polystyrene plates (Becton Dickinson and Co, San Jose, Calif., USA) for 2 hours at 37° C., alone or with the indicated amounts of intact or heat-inactivated chemokines. […] VCAM-1 site densities were assessed using ^125I-labeled anti-VCAM-1 mAb, 4B9. […] The entire duration of cell perfusions were recorded on a videotape with a long integration LIS-700 CCD video camera (Applitech Rigicam, Israel) and a Time Lapse SVHS-Video recorder (AG-6730; Panasonic, Japan). […]

NC(=O)c1cccnc1 [nicotinamide]
reduction of CD26 expression ([1]; 20 hours with Nicotinamide 5 mM, compared to cells without Nicotinamide and to freshly purified CD34+ cells (T-0)): 2-3 fold | CD26+ cells (%) ([1]; freshly purified CD34+ cells incubated with Nicotinamide 5 mM for 20 hours (T-20)): 2.7% and 6% | percentage of initially settled cells resistant to removal by shear stress (VLA-4): significantly enhanced
